Measurements: patent US7226923B2, “Phthalazinone derivatives” (Hoffman-La Roche Inc., priority 2004, dated 2007)

What follows are compounds tested on HCT 116 cells (assay: CellTiter-Glo assay in HCT 116 cells). Details: 5 days incubation, 30 μM to 0.0015 μM.
Format: cell-based, human
Source text: CellTiter-Glo™ Assay in HCT 116 Cells
The CellTiter-Glo™ Luminescent Cell Viability Assay (Promega) is a homogeneous method of determining the number of viable cells in culture based on quantitation of the ATP present, which signals the presence of metabolically active cells.
HCT 116 cells (human colon carcinoma, ATCC-No. CCl-247) were cultivated in RPMI 1640 medium with GlutaMAX™ I (Invitrogen, Cat-No. 61870-010), 2.5% Fetal Calf Serum (FCS, Sigma Cat-No. F4135 (FBS)); 100 Units/ml penicillin/100 μg/ml streptomycin (=Pen/Strep from Invitrogen Cat. No. 15140). For the assay the cells were seeded in 384 well plates, 1000 cells per well, in the same medium. The next day the test compounds were added in various concentrations ranging from 30 μM to 0.0015 μM (10 concentrations, 1:3 diluted). After 5 days the CellTiter-Glo™ assay was done according to the instructions of the manufacturer (CellTiter-Glo™ Luminescent Cell Viability Assay, from Promega). In brief: the cell-plate was equilibrated to room temperature for approximately 30 minutes and than the CellTiter-Glo™ reagent was added. The contents were carefully mixed for 15 minutes to induce cell lysis. After 45 minutes the luminescent signal was measured in Victor 2, (scanning multiwell spectrophotometer, Wallac).
1st. Day: • Medium: RPMI 1640 with GlutaMAX™ I (Invitrogen, Cat-Nr. 61870), 5% FCS (Sigma Cat.-No. F4135), Pen/Strep (Invitrogen, Cat No. 15140). • HCT116 (ATCC-No. CCl-247): 1000 cells in 60 μl per well of 384 well plate (Greiner 781098, μClear-plate white) • After seeding incubate plates 24 h at 37° C., 5% CO2
2nd. Day: Induction (Treatment with Compounds, 10 Concentrations):
In order to achieve a final concentration of 30 μM as highest concentration 3.5 μl of 10 mM compound stock solution were added directly to 163 μl media. Then step e) of the dilution procedure described below, was followed.

With `Cc1cc(Nc2nn(-c3ccccc3)c(=O)c3ccccc23)[nH]n1` [Example A-1, 4-(5-Methyl-2H-pyrazole-3-ylamino)-phenyl-2H-phthalazin-1-one] the IC50 was 1660 nM.

Same assay, conditions: Homo sapiens, HCT-116, 120 h, 5 days incubation, 30 μM to 0.0015 μM

`Cc1cc(Nc2nn(Cc3ccccc3)c(=O)c3ccccc23)n[nH]1` [Example A-2, 2-Benzyl-4-(5-methyl-1H-pyrazol-3-ylamino)-2H-phthalazin-1-one] and `COc1cccc(Cn2nc(Nc3cc(C)[nH]n3)c3ccccc3c2=O)c1` [Example A-12, 2-(3-Methoxy-benzyl)-4-(5-methyl-1H-pyrazol-3-ylamino)-2H-phthalazin-1-one] fall in the same range of IC50: 100 to 10000 nM for the first, 100 to 10000 nM for the second.

`Cc1cc(Nc2nn(C)c(=O)c3ccccc23)n[nH]1` [Example A-3, 2-Methyl-4-(5-methyl-1H-pyrazol-3-ylamino)-2H-phthalazin-1-one] and `Cc1cc(Nc2nn(CC(C)C)c(=O)c3ccccc23)n[nH]1` [Example A-4, 2-Isobutyl-4-(5-methyl-1H-pyrazol-3-ylamino)-2H-phthalazin-1-one] fall in the same range of IC50: 100 to 10000 nM for the first, 100 to 10000 nM for the second.

`Cc1cc(Nc2nn(CC(F)(F)F)c(=O)c3ccccc23)n[nH]1` [Example A-5, 4-(5-Methyl-1H-pyrazol-3-ylamino)-2-(2,2,2-trifluoro-ethyl)-2H-phthalazin-1-one] and `C=CCn1nc(Nc2cc(C)[nH]n2)c2ccccc2c1=O` [Example E-10, 2-Allyl-4-(5-methyl-1H-pyrazol-3-ylamino)-2H-phthalazin-1-one] fall in the same range of IC50: 100 to 10000 nM for the first, 100 to 10000 nM for the second.

`Cc1cc(Nc2nn(-c3ccc(C(C)(C)C)cc3)c(=O)c3ccccc23)n[nH]1` [Example A-8, 2-(4-tert-Butyl-phenyl)-4-(5-methyl-1H-pyrazol-3-ylamino)-2H-phthalazin-1-one] and `Cc1cc(Nc2nn(-c3ccc(Cl)cc3)c(=O)c3ccccc23)n[nH]1` [Example B-1, 2-(4-Chloro-phenyl)-4-(5-methyl-1H-pyrazol-3-ylamino)-2H-phthalazin-1-one] fall in the same range of IC50: 100 to 10000 nM for the first, 100 to 10000 nM for the second.

`Cc1cc(Nc2nn(Cc3cc(F)ccc3F)c(=O)c3ccccc23)n[nH]1` [Example A-13, 2-(2,5-Difluoro-benzyl)-4-(5-methyl-1H-pyrazol-3-ylamino)-2H-phthalazin-1-one] and `Cc1cc(Nc2nn(Cc3ccc(F)c(F)c3)c(=O)c3ccccc23)n[nH]1` [Example A-15, 2-(3,4-Difluoro-benzyl)-4-(5-methyl-1H-pyrazol-3-ylamino)-2H-phthalazin-1-one] fall in the same range of IC50: 100 to 10000 nM for the first, 100 to 10000 nM for the second.

`Cc1cc(Nc2nn(Cc3csc(C)n3)c(=O)c3ccccc23)n[nH]1` [Example A-16, 4-(5-Methyl-1H-pyrazol-3-ylamino)-2-(2-methyl-thiazol-4-ylmethyl)-2H-phthalazin-1-one] and `CSc1ccc(Cn2nc(Nc3cc(C)[nH]n3)c3ccccc3c2=O)cc1` [Example E-12, 4-(5-Methyl-1H-pyrazol-3-ylamino)-2-(4-methylsulfanyl-benzyl)-2H-phthalazin-1-one] fall in the same range of IC50: 100 to 10000 nM for the first, 100 to 10000 nM for the second.

`Cc1cc(Nc2nn(-c3ccc(N)cc3)c(=O)c3ccccc23)n[nH]1` [Example C-2, 2-(4-Amino-phenyl)-4-(5-methyl-1H-pyrazol-3-ylamino)-2H-phthalazin-1-one] and `Cc1cc(Nc2nn(-c3ccc(N4CCCC4)cc3)c(=O)c3ccccc23)n[nH]1` [Example U-3, 4-(5-Methyl-1H-pyrazol-3-ylamino)-2-(4-pyrrolidin-1-yl-phenyl)-2H-phthalazin-1-one] fall in the same range of IC50: 100 to 10000 nM for the first, 100 to 10000 nM for the second.

`Cc1cc(Nc2nn(C(C)C)c(=O)c3ccc(F)cc23)n[nH]1` [Example E-3, 6-Fluoro-2-isopropyl-4-(5-methyl-1H-pyrazol-3-ylamino)-2H-phthalazin-1-one] and `Cc1cc(Nc2nn(C(C)C)c(=O)c3cc(NS(C)(=O)=O)ccc23)n[nH]1` [Example J-2, N-[3-Isopropyl-1-(5-methyl-1H-pyrazol-3-ylamino)-4-oxo-3,4-dihydro-phthalazin-6-yl]-methanesulfonamide] fall in the same range of IC50: 100 to 10000 nM for the first, 100 to 10000 nM for the second.

`Cc1cc(Nc2nn(CC3CC3)c(=O)c3ccccc23)n[nH]1` [Example E-11, 2-Cyclopropylmethyl-4-(5-methyl-1H-pyrazol-3-ylamino)-2H-phthalazin-1-one] and `CCOC(=O)N(C)c1ccc(-n2nc(Nc3cc(C)[nH]n3)c3ccccc3c2=O)cc1` [Example Y-3, Methyl-{4-[4-(5-methyl-1H-pyrazol-3-ylamino)-1-oxo-1H-phthalazin-2-yl]-phenyl}-carbamic acid ethyl ester] fall in the same range of IC50: 100 to 10000 nM for the first, 100 to 10000 nM for the second.

`Cc1cc(Nc2nn(C(C)C)c(=O)c3ccc(N4CCOCC4)cc23)n[nH]1` [Example F-2, 2-Isopropyl-4-(5-methyl-1H-pyrazol-3-ylamino)-6-morpholino-2H-phthalazin-1-one] and `Cc1cc(Nc2nn(C(C)C)c(=O)c3cc(SCCN4CCOCC4)ccc23)n[nH]1` [Example H-3, 2-Isopropyl-4-(5-methyl-1H-pyrazol-3-ylamino)-7-(2-morpholin-4-yl-ethylsulfanyl)-2H-phthalazin-1-one] fall in the same range of IC50: 100 to 10000 nM for the first, 100 to 10000 nM for the second.

`CCOC(=O)N(C)c1ccc2c(Nc3cc(C)[nH]n3)nn(C(C)C)c(=O)c2c1` [Example I-7, [3-Isopropyl-1-(5-methyl-1H-pyrazol-3-ylamino)-4-oxo-3,4-dihydro-phthalazin-6-yl]-methyl-carbamic acid ethyl ester] and `Cc1cc(Nc2nn(C(C)C)c(=O)c3cc(N(C)S(C)(=O)=O)ccc23)n[nH]1` [Example I-10, N-[3-Isopropyl-1-(5-methyl-1H-pyrazol-3-ylamino)-4-oxo-3,4-dihydro-phthalazin-6-yl]-N-methyl-methanesulfonamide] fall in the same range of IC50: 100 to 10000 nM for the first, 100 to 10000 nM for the second.

`Cc1cc(Nc2nn(C(C)C)c(=O)c3cc(C(=O)NC(C)C)ccc23)n[nH]1` [Example M-5, 3-Isopropyl-1-(5-methyl-1H-pyrazol-3-ylamino)-4-oxo-3,4-dihydro-phthalazine-6-carboxylic acid isopropylamide] and `COCC(=O)Nc1ccc(-n2nc(Nc3cc(C)[nH]n3)c3ccccc3c2=O)cc1` [Example T-2, 2-Methoxy-N-{4-[4-(5-methyl-1H-pyrazol-3-ylamino)-1-oxo-1H-phthalazin-2-yl]-phenyl}-acetamide] fall in the same range of IC50: 100 to 10000 nM for the first, 100 to 10000 nM for the second.

First: Cc1cc(Nc2nn(-c3ccc(-c4ccccc4)cc3)c(=O)c3ccccc23)n[nH]1 [Example Q-1, 2-Biphenyl-4-yl-4-(5-methyl-1H-pyrazol-3-ylamino)-2H-phthalazin-1-one]
Second: Cc1cc(Nc2nn(-c3ccc([S+]([O-])c4ccccc4)cc3)c(=O)c3ccccc23)n[nH]1 (stereo not drawn) [Example ZA-2, 2-(4-Benzenesulfinyl-phenyl)-4-(5-methyl-1H-pyrazol-3-ylamino)-2H-phthalazin-1-one]
The IC50 of the first is higher: 10000 to 100000 nM for the first, 100 to 10000 nM for the second.

`CCN(C(C)=O)c1ccc(-n2nc(Nc3cc(C)[nH]n3)c3ccccc3c2=O)cc1` [Example Y-1, N-Ethyl-N-{4-[4-(5-methyl-1H-pyrazol-3-ylamino)-1-oxo-1H-phthalazin-2-yl]-phenyl}-acetamide] and `Cc1cc(Nc2nn(-c3ccc(C(C)(C)C)cc3)c(=O)c3cc(N)ccc23)[nH]n1` [Example ZB-2, 7-Amino-2-(4-tert-butyl-phenyl)-4-(5-methyl-2H-pyrazol-3-ylamino)-2H-phthalazin-1-one] fall in the same range of IC50: 100 to 10000 nM for the first, 100 to 10000 nM for the second.

`Cc1cc(Nc2nn(-c3ccc(C(C)(C)C)cc3)c(=O)c3ccc(Br)cc23)[nH]n1` [Example ZB-6, 6-Bromo-2-(4-tert-butyl-phenyl)-4-(5-methyl-2H-pyrazol-3-ylamino)-2H-phthalazin-1-one] was tested, and the IC50 was 100 to 10000 nM.

Each compound was assayed against T1, Aurora A (Homo sapiens, UniProt O14965) (assay: IC50 determination for inhibitors of Aurora A (96 MTP-ELISA)). Details: His4-tagged full-length Aurora A 250 ng/ml, PKB-GSK2 200 nM, ATP 4 μM, 90 min at room temperature, read-out: IC50 Aurora A kinase inhibition.
T1 construct: C-terminally Histidine4 (His4)-tagged Aurora A full-length protein
T1 sequence (O14965 1-403): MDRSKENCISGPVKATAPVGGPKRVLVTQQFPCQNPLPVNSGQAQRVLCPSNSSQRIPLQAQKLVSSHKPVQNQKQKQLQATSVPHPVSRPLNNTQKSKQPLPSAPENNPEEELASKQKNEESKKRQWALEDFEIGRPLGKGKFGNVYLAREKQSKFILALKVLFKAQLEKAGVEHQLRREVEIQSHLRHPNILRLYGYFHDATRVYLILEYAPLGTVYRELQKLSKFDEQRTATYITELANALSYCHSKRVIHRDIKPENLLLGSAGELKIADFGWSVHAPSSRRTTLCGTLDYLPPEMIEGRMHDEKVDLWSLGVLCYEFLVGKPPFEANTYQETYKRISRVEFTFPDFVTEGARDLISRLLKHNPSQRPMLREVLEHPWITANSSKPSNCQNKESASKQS
Format: biochemical
Description: IC50 Determination for Inhibitors of Aurora A
• Aurora A is a serine threonine kinase involved in spindle assembly and chromosome segregation.
The assay is a typically ELISA-type assay where biotinylated substrate (PKB-GSK2) is phosphorylated. Phosphorylation is detected by peroxidase (POD) labelled polyclonal antibody (PAK<M-Ig>S-IgG-POD) and phosphopeptide monoclonal antibody (Mab) (MAK<P-GSK>M-27E5-IgG). The assay is validated for IC50-determination.
Method • This assay is performed in 96-well format for IC50 determination with 5 samples (each with 8 concentrations by twofold testing), 100 μl incubation volume and the following plate layout: […]

Point of comparison: `Cc1cc(Nc2nn(Cc3ccccc3)c(=O)c3ccccc23)n[nH]1` [Example A-2, 2-Benzyl-4-(5-methyl-1H-pyrazol-3-ylamino)-2H-phthalazin-1-one], IC50 65 nM. Against it:
- Cc1cc(Nc2nn(C)c(=O)c3ccccc23)n[nH]1 [Example A-3, 2-Methyl-4-(5-methyl-1H-pyrazol-3-ylamino)-2H-phthalazin-1-one] — higher, 100 to 1000 nM
- Cc1cc(Nc2nn(CC(F)(F)F)c(=O)c3ccccc23)n[nH]1 [Example A-5, 4-(5-Methyl-1H-pyrazol-3-ylamino)-2-(2,2,2-trifluoro-ethyl)-2H-phthalazin-1-one] — not separable, 1 to 100 nM
- Cc1cc(Nc2nn(-c3ccc(C(C)(C)C)cc3)c(=O)c3ccccc23)n[nH]1 [Example A-8, 2-(4-tert-Butyl-phenyl)-4-(5-methyl-1H-pyrazol-3-ylamino)-2H-phthalazin-1-one] — higher, 100 to 1000 nM
- COc1cccc(Cn2nc(Nc3cc(C)[nH]n3)c3ccccc3c2=O)c1 [Example A-12, 2-(3-Methoxy-benzyl)-4-(5-methyl-1H-pyrazol-3-ylamino)-2H-phthalazin-1-one] — not separable, 1 to 100 nM
- Cc1cc(Nc2nn(Cc3csc(C)n3)c(=O)c3ccccc23)n[nH]1 [Example A-16, 4-(5-Methyl-1H-pyrazol-3-ylamino)-2-(2-methyl-thiazol-4-ylmethyl)-2H-phthalazin-1-one] — higher, 100 to 1000 nM
